# Test results taken from ChEMBL document CHEMBL3880439, “Cyclopentanone and cyclopentanone derivatives as potent activators of HSF-1” (2004).
# What was measured:
# [1] = target: Heat shock factor protein (Homo sapiens) (UniProt Q00613+Q03933+Q9ULV5); test: Activation of HSF in human HeLa cell clone 13B after 8 hrs by luciferase reporter gene assay; assay type: cell-based
# [2] = Cytotoxicity against African green monkey 37RC cells incubated for 8 hrs measured after 6 hrs by neutral red assay; assay type: cell-based; conditions: chlorocebus aethiops, read-out: LC50
# [3] = Cytotoxicity against human HeLa cells incubated for 8 hrs measured after 6 hrs by Alamar blue assay; assay type: cell-based; conditions: read-out: LC50
# [4] = tested on: Respirovirus muris; test: Antiviral activity against Sendai virus infected in African green monkey 37RC cells assessed as inhibition of viral replication at 24 hrs by haemagglutinin titration method; assay type: functional; conditions: read-out: ID50 (the source's name)
# [5] = Cytotoxicity against African green monkey 37RC cells by microscopic method; assay type: cell-based; conditions: chlorocebus aethiops
# [6] = Toxicity in iv dosed anaesthetized rat assessed as decrease in blood pressure administered as infusion; assay type: organism-based; conditions: in vivo
Structure (SMILES),AC200 [1],CC50 at 8 h [2],CC50 at 8 h [3],IC50 [4],TD100 [5],Activity [6]
Cc1cc(C)c(/C=C2/C(=O)C=C[C@@H]2NC(=O)OC(C)(C)C)c(C)c1,< 6.2 µM,25 µM,,,,
CCCCCC/C=C1/C(=O)C=CC1C (configuration not stated),< 6.2 µM,,234 µM,,,
CC1C=CC(=O)/C1=C/c1ccccc1 (configuration not stated),3 µM,,314 µM,0.9 µM,50 µM,
O=C1C=CC(NC(=O)c2ccccc2)C1 (configuration not stated),51 µM,59 µM,> 800 µM,20 µM,100 µM,
O=C1C=CC(Nc2ccccc2)C1 (configuration not stated),27 µM,,> 800 µM,,,
CC(C)(C)OC(=O)N[C@@H](CS[C@@H]1CC(=O)/C(=C/c2ccccc2)[C@H]1NC(=O)OC(C)(C)C)C(=O)O,< 6.2 µM,25 µM,,,,
CC(C)/C=C1/C(=O)C=C[C@@H]1NC(=O)OC(C)(C)C,1.8 µM,4 µM,> 800 µM,1 µM,50 µM,
CCOC(=O)N(C(=O)OC(C)(C)C)C1C=CC(=O)C1 (configuration not stated),18 µM,233 µM,,,,
O=C1C[C@H](Sc2ccc3ccccc3c2)[C@H](NC(=O)Oc2ccccc2)C1,28 µM,183 µM,,,,
O=C1C=CC(NC(=O)CCl)C1 (configuration not stated),< 6.2 µM,79 µM,,,,
CCCCC1C=CC(=O)/C1=C/CC(C)C (configuration not stated),13 µM,,227 µM,0.3 µM,50 µM,
CC(C)(C)OC(=O)NC1C=CC(=O)C1 (configuration not stated),51 µM,,> 800 µM,20 µM,100 µM,
CC(C)(C)OC(=O)NC1C=CC(=O)/C1=C/c1ccccc1 (configuration not stated),1.8 µM,33 µM,> 800 µM,0.6 µM,10 µM,
CCCCC[C@H](O)/C=C/[C@H]1C=CC(=O)[C@@H]1CCCCCCC(=O)O [PROSTAGLANDIN A1],,,,,,Toxic
Cc1ccc(S(=O)(=O)NC(=O)OC2C=CC(=O)C2)cc1 (configuration not stated),13 µM,,> 800 µM,,,
COC(=O)[C@H](CSC1CC(=O)/C(=C/C(C)C)C1C)NC(=O)OC(C)(C)C (some centres not stated),18 µM,,> 800 µM,,,
COC(=O)[C@H](CS[C@@H]1CC(=O)C[C@H]1NC(=O)Oc1ccccc1)NC(=O)OC(C)(C)C,13 µM,76 µM,,,,
CCCCC1C=CC(=O)/C1=C/C(C)C (configuration not stated),13 µM,,506 µM,0.3 µM,10 µM,
C[C@H]1C=CC(=O)/C1=C/c1ccc([N+](=O)[O-])cc1,2 µM,,> 800 µM,,,
CC(C)(C)OC(=O)NC1C=CC(=O)/C1=C/c1ccc(Cl)cc1 (configuration not stated),2 µM,3.4 to 72 µM,> 800 µM,0.6 µM,10 µM,
O=C1C=CC(NC(=O)Oc2ccccc2)C1 (configuration not stated),10 µM,74 µM,,,,
CC(C)/C=C1/C(=O)C=C[C@H]1NC(=O)OC(C)(C)C,5 µM,4 µM,> 800 µM,0.4 µM,10 µM,
CC(C)/C=C1/C(=O)C=CC1NC(=O)OC(C)(C)C (configuration not stated),2.8 µM,4 µM,> 800 µM,1 µM,50 µM,
O=C1C[C@@H](NC(=O)Oc2ccccc2)[C@H](Sc2ccc3ccccc3c2)C1,26 µM,113 µM,,,,
CCCCC/C=C1/C(=O)C=CC1C (configuration not stated),> 100 µM,,> 800 µM,,,
CCCCC1C=CC(=O)/C1=C/C1CC1 (configuration not stated),8 µM,,239 µM,,,
CCCCC[C@H](O)/C=C/[C@H]1[C@H](O)CC(=O)[C@@H]1CCCCCCC(=O)O [ALPROSTADIL],,,,,,Toxic
CC(C)/C=C1/C(=O)C=CC1C (configuration not stated),13 µM,,> 800 µM,,,
CC(C)/C=C1\C(=O)C=CC1NC(=O)c1ccccc1 (configuration not stated),< 6.2 µM,4 µM,50 µM,0.3 µM,10 µM,
CCOC(=O)NC1C=CC(=O)C1 (configuration not stated),49 µM,104 µM,,,,
